Laboratory results reported in article PMC10536189 (Microorganisms, 2023).
“Also recorded” adds a separate entry of the source.

System: multidrug-resistant (MDR) Mycobacterium tuberculosis
Assay type: cell-based
Settings: Peptide 14D at 1 µg/mL; low inoculum

wkivfwwrr-CONH2 [Peptide 14D]
Effect on growth of multidrug-resistant MTB: reducing the lag time before growth starts; also recorded: increased growth
